Results as given in patent US8268861B2, “P2X7R antagonists and their use” (Affectis Pharmaceuticals AG, priority 2009, dated 2012).

Tests used:
human P2X7R = target: T1, human P2X7R (Homo sapiens, UniProt Q99572); assay: Inhibition of Bz-ATP-stimulated calcium influx in Hek293 cells stably transfected with human P2X7R (Fluo-4-AM); format: cell-based; details: Hek293 cells expressing human P2X7R, 100 μM Bz-ATP, 15 minute incubation with test compound
T1 construct: expressed in transfected cells
T1 sequence (Q99572 1-595): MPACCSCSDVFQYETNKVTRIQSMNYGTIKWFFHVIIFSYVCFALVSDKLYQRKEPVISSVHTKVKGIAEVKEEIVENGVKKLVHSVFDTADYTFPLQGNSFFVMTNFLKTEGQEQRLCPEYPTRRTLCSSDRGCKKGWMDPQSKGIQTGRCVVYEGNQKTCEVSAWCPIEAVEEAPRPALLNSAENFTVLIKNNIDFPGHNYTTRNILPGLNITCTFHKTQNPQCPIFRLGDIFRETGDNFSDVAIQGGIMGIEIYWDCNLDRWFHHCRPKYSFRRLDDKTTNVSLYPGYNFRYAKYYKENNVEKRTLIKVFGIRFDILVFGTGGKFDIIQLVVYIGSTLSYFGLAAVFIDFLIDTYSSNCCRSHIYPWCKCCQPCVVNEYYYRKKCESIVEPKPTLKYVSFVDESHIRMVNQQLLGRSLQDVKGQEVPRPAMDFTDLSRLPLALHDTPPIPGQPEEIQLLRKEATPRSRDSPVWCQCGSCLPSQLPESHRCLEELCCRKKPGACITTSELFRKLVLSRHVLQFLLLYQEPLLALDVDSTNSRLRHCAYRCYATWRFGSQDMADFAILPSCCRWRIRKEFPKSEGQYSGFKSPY
Procedure: Inhibition of P2X7R activity by the compounds of the present invention is assessed by measuring calcium influx in Hek293 cells (ECACC No. 85120602) which have been stably transfected with a cDNA for the human P2X7R.
Hek293 cells expressing P2X7R were generated by lipofectamine transfection of the human P2X7R cDNA (Genbank accession number BC011913) under the control of the human cytomegalovirus immediate-early (CMV) promoter and inserted into the pcDNA3.1 vector (Invitrogen). […]
Inhibition of Bz-ATP-stimulated P2X7R by test compounds was monitored by measuring changes in calcium influx using the Fluo-4-AM fluorescent dye according to the manufacturer's recommendations (Molecular Devices Corporation, U.S.A.). […] After a 15 minute incubation, 100 μM Bz-ATP was added and fluorescence was measured in a FlexStation II (Molecular Devices, U.S.A.) according to the following parameters: 485 nm Excitation Wavelength; 525 nm Emission Wavelength; 515 nm Emission Cut-off; 100 μl Pipette Height; 25 μl Transfer Volume; 5 fold Compound Concentration; 3 rate Addition Speed. […] The fluorescence data were processed using a lag time of 15 seconds, recording 45 seconds, zero baseline calibrated using 2 points, and % baseline multiplier set at 3. […]

IL-1 beta secretion = IL-1 beta secretion by LPS/BzATP-stimulated isolated human monocytes (macrophages), ELISA; format: cell-based; details: 1 μg/mL LPS 2 hours, 100 μM BzATP 30 minutes, compound added 5 minutes before BzATP, FIG. 1, p<0.01
Procedure: The effects of compounds of the present invention on IL-1 beta secretion is assessed using isolated human monocytes.
Briefly, human monocytes were purified from human blood by Ficoll-Paque from Buffy coats as follows. The Buffy coat is a greyish white layer of white blood cells and platelets that accumulates on the surface of sedimented erythrocytes when blood is allowed to stand or is centrifuged. Each Buffy coat (one per donor) was diluted with PBS and 20 ml added on top of 15 ml of Ficoll-Paque. The gradient was centrifuged at 900 g for 20 min at room temperature. […] At day 5, the cells were counted, resuspended in RPMI 1640 supplemented with 5% human serum at a concentration of 1×10^6/ml and plated onto a 24 wells plate (5×10^5 cells/well). […]
The day of experiment, the macrophages were pre-stimulated for 2 hours with 1 μg/mL LPS at 37° C. […] After incubation, the supernatants were collected by centrifugation (250 g for 5 minutes) and IL-1β secretion was measured by using the human IL-1 beta/IL-1F2 Quantikine ELISA Kit following manufacturer's instructions. […] The O.D. at 450 nm was measured for each data points and the IL-1β concentration calculated based on a standard curve. The […] concentration was further calculated to have a concentration in pg/mL/10E+6 cells, together with its standard deviation.

IC50 (human P2X7R): ~3.8 nM
SMILES: O=C(CC1CCCCCC1)Nc1cn(CCO)c2cccc(Cl)c12 [Example 2, N-(4-chloro-1-(2-hydroxyethyl)-1H-indol-3-yl)-2-cycloheptylacetamide]
IL-1beta secretion (IL-1 beta secretion): reduced IL-1beta secretion
